{"source": "patent US10092537B2", "about": "“Use for PAI-1 inhibitor” (RENASCIENCE CO., LTD., priority 2013, dated 2018)", "key": {"CML cells": {"test_system": "CML cells", "experiment": "Chronic myelogenous leukemia model mice, CML cells engrafted onto bone marrow by FACS (Experimental Example 15)", "type": "in vivo", "experimental": "Chronic myelogenous leukemia model mice prepared in accordance with the procedure of Experimental Example 11 (1) were divided into 3 groups (each group: n=15) and administered respective test drugs.\nGroup 1: placebo group (physiological saline was administered via gavage)\nGroup 2: imatinib group (imatinib [150 mg/kg/day] was administered via gavage)\nGroup 3: imatinib+compound c group (imatinib [150 mg/kg/day] and compound c [10 mg/kg/day] were administered via gavage)\n8 days (day 8) after the day on which CML cells were intravenously inoculated (day 0), administration of test drugs to the groups was started. The placebo group and the imatinib group were administered the respective test drugs once a day from day 8 to day 14 (7 doses in total). The imatinib+compound c group was administered imatinib once a day from day 8 to day 14 (7 doses in total), and also administered compound c once a day from day 8 to day 14 (7 doses in total).\nCML cells engrafted onto bone marrow were analyzed by FACS immediately before the administration of a test drug (day 8; “immediately before antitumor agent treatment” in FIG. 19), immediately after the completion of administration of a test drug (day 14; “immediately after antitumor agent treatment” in FIG. 19), and day 28 from the start of administration of a test drug (day 36; “after 28 days” in FIG. 19). […] About 50% leukemia cells were grafted on the bone marrow immediately before administration of a test drug (day 8; “immediately before antitumor agent treatment” in FIG. 19). After the tumor-bearing mice were administered a test drug 7 times (day 14), the proportion of CML cells was analyzed. […] All of the mice in the group administered physiological saline died."}, "hematopoietic stem cells": {"test_system": "hematopoietic stem cells", "experiment": "Bone-marrow transplanted mice, compound c, G-CSF and G-CSF neutralizing antibody (Experimental Example 13)", "type": "in vivo", "settings": "for G-CSF concentration in the plasma and bone-marrow fluids: 1 week after transplantation", "experimental": "Bone-marrow transplanted mice were prepared in the same manner as in Experimental Example 4, and compound c, G-CSF, and G-CSF neutralizing antibody were examined for the effects. Specifically, the bone-marrow transplanted mice were divided into 5 groups as shown below (each group: n=5) and orally administered respective test drugs.\nGroup 1: vehicle group (physiological saline was administered via gavage) (“v group”)\nGroup 2: compound c group (compound c [10 mg/kg/day] was administered via gavage) (“TM group”)\nGroup 3: G-CSF group (G-CSF [150 μg/kg/day] was administered via gavage) (“G group”)\nGroup 4: vehicle+anti-G-CSF group (physiological saline+G-CSF neutralizing antibody [500 μg/kg/day] was administered via gavage) (“v+Ab group”)\nGroup 5: compound c+anti-G-CSF group (compound c [500 μg/kg/day]+G-CSF neutralizing antibody [500 μg/kg/day] was administered via gavage) (“TM+Ab group”)\nConcurrently with bone-marrow transplantation, administration of physiological saline (vehicle) to the vehicle group via gavage was started, and the administration continued for 5 consecutive days. Concurrently with bone-marrow transplantation, administration of compound c (10 mg/kg/day) to the compound c group via gavage was started, and the administration continued for 5 consecutive days. Concurrently with bone-marrow transplantation, subcutaneous administration of G-CSF (150 μg/kg/day) to the G-CSF group was started, and the administration continued for 5 consecutive days. Concurrently with bone-marrow transplantation, gavage administration of physiological saline and subcutaneous administration of G-CSF neutralizing antibody (R&D) (500 μg/kg/day) to the vehicle+anti-G-CSF group were started, and the administration continued for 5 consecutive days. Concurrently with bone-marrow transplantation, gavage administration of compound c (10 mg/kg/day) and intraperitoneal administration of G-CSF neutralizing antibody (R&D) (500 μg/kg/day) to the compound c+anti-G-CSF group were started, and the administration continued for 5 consecutive days.\n1 week after bone-marrow transplantation, plasma and bone-marrow fluids were collected from mice of each group (v group, TM group, G group, v+Ab group, and TM+Ab group), and the G-CSF concentration (pg/ml) was measured by ELISA. The following were determined in accordance with an ordinary procedure: (B) G-CSF concentration (pg/ml) in bone-marrow fluids, (C) total number of mononucleic cells (×10E7 cell) in the bone marrow, (D) proportion (%) of LSK CD34 negative cells in the bone marrow, (E) total number of LSK CD34 negative cells in the bone marrow, (F) proportion (%) of Lin-SLAM cells in the bone marrow, and (G) total number of Lin-SLAM cells in the bone marrow."}, "[1]": {"settings": "compound c + G-CSF neutralizing antibody 500 μg/kg/day"}}, "data": [{"smiles": "O=C(Nc1ccc(Cl)cc1C(=O)O)c1cccc(-c2ccccc2)c1", "note": "[Example 4, 2-[(biphenyl-3-ylcarbonyl)amino]-5-chlorobenzoic acid]", "values": [{"measurement": "CML (leukemia) cells in the bone marrow", "setting": "CML cells; imatinib 150 mg/kg/day + compound c 10 mg/kg/day, day 8 to day 14, analysed day 36", "value": 1.8, "unit": "%"}, {"measurement": "proportion of CML cells in the bone marrow", "setting": "CML cells; imatinib + compound c, day 14, after 7 doses, about 50% before treatment", "value": "marked decrease"}, {"measurement": "number of BM MNC", "setting": "hematopoietic stem cells; [1]", "value": "did not exhibit a decrease"}, {"measurement": "proportion and number of LSK-CD34 negative cells", "setting": "hematopoietic stem cells; [1]", "value": "not decreased"}, {"measurement": "G-CSF concentration in the plasma and bone-marrow fluids", "setting": "hematopoietic stem cells; [1]", "value": "an increase in G-CSF in neither plasma nor bone-marrow fluids"}, {"measurement": "G-CSF concentration in the plasma and bone-marrow fluids", "setting": "hematopoietic stem cells; single agents: compound c 10 mg/kg/day gavage, G-CSF 150 μg/kg/day, G-CSF neutralizing antibody 500 μg/kg/day with vehicle, versus vehicle", "value": "significant increases"}, {"measurement": "proportion and number of LSK CD34 negative cells", "setting": "hematopoietic stem cells; single agents: compound c 10 mg/kg/day, G-CSF 150 μg/kg/day, G-CSF neutralizing antibody 500 μg/kg/day with vehicle, versus vehicle group", "value": "increased"}, {"measurement": "number of BM MNC", "setting": "hematopoietic stem cells; single agents: compound c 10 mg/kg/day, G-CSF 150 μg/kg/day, versus vehicle group", "value": "more increased"}]}]}
